Like-named read-outs stand apart in the source and are kept apart here. Marks after values point to notes of the source that are not given here.
What was measured:
[1] = Cytotoxicity assay (Cell Counting Kit-8) after 1 min exposure; type: cell-based, human; conditions: human
Procedure: (§1) For cytotoxicity assay, the HCE-T cells were seeded in a 96-well culture plate at a density of 5 × 10^3 cells/well (100 μL/well) and incubated for approximately 24 h. After the 24-h incubation, the cells were washed with PBS. The cells were then exposed to a mixture of 50 μL of serum-free medium and an equal volume of test compounds at twice concentration of final concentration for 1 min at room temperature. After the treatment, the cells were washed with PBS, and 100 μL of fresh culture medium was added. The cells were further incubated for 2, 4, 6, and 24 h at 37 °C. After that, the cells were incubated with 100 μL of Cell Counting Kit-8 (Dojindo Laboratories Co., Ltd., Kumamoto, Japan) diluted to one-tenth with a serum-free medium for 2 h at 37 °C. Absorbance was measured at 450 nm using a microplate reader (Synergy HTX, BioTek Instruments Inc., Winooski, VT). Cell viability was calculated as follows: the absorbance of compound-treated cells/the absorbance of non-treated cells, expressed as a percentage (n = 3/group).
(§2) The mean and SD of the % tail DNA and cell viability (%) were calculated for all experimental groups. […] JMP version 15.1.0 was used for all statistical analyses.

[2] = system: corneal epithelial cells of rabbit; assay: In vivo alkaline comet assay of corneal epithelial cells after single ocular instillation
Procedure: Experiments were performed per sampling time, and […] clinically normal rabbits were randomly assigned to each treatment group.
After ocular instillation, the eyelids were artificially blinked several times. The rabbits were euthanized after 0.5, 2, 4, 6, and 24 h by intravenously administering an overdose (approximately 90 mg/kg) of thiopental solution (Ravonal; Nipro ES Pharma Co. Ltd., Osaka, Japan). The eyeballs of the rabbits were collected after euthanasia and subjected to the comet assay.
The collected eyes were washed with Ca^2+- and Mg^2+-free phosphate-buffered saline (PBS). After washing, the corneas were removed from the eyes using scissors. The removed corneas were treated with 1.2 unit/mL Dispase II (Roche Diagnostics K.K., Tokyo, Japan) in minimum essential media (MEM; Thermo Fisher Scientific K. K., Tokyo, Japan) supplemented with 10% bovine serum (10% BS/MEM) overnight at 4 °C. Corneal epithelial cells were isolated using a spatula and placed into fresh 10% BS/MEM. The cells were centrifuged at 200×g for 5 min, and the supernatants were discarded. The cells were resuspended in 1 mL of 0.25% trypsin (Thermo Fisher Scientific K. K.) and incubated for 10 min at 37 °C. Furthermore, 8 mL of 10% BS/MEM was added to the cells, and the cell suspensions were passed through a 70-μm cell strainer. The cells were centrifuged at 200×g for 5 min, and the supernatants were discarded. The cells were then resuspended with PBS to a density of approximately 2 × 10^5 cells/mL.
The alkaline comet assay was conducted according to previously published method. A 30 μL of the prepared cell suspension was mixed with 270 μL of melted agarose solution (CometAssay LMAgarose; Trevigen, Inc., Gaithersburg, MD). Then, 30 μL of this mixture was placed in each well of a 20-well slide (CometSlide HT, Trevigen, Inc.), and the slide was left for approximately 10 min at 4 °C to solidify the agarose. The slide was immersed in lysis solution (pH 10) containing 2.5 M sodium chloride, 100 mM di-sodium dihydrogen ethylenediaminetetraacetate dihydrate (EDTA∙2Na), 10 mM tris(hydroxymethyl)aminomethane (Tris), and 1% (v/v) polyethylene glycol mono-p-isooctylphenyl ether for 1 h at 4 °C. Subsequently, the slide was immersed in an alkaline unwinding solution (200 mM sodium hydroxide and 1 mM EDTA, pH > 13) for 20 min at room temperature. Electrophoresis was performed with the same solution at 1 V/cm for 30 min under refrigeration. After electrophoresis, the slide was washed twice with ultrapure water and dehydrated by immersion in ethanol for 10 min. The slide was stained with SYBR Green I Nucleic Acid Gel Stain (excitation maxima at 497 nm, emission maxima at 520 nm; Thermo Fisher Scientific K. K.) diluted 1:1000 with Tris-EDTA buffer (pH 7.5) and mounted using ProLong Gold (Thermo Fisher Scientific K. K.). The slide was observed using a BX51 fluorescence microscope (Olympus Corporation, Tokyo, Japan) with a NIBA filter (excitation at 460–495 nm and emission at 510–550 nm) equipped with a CCD camera (scA1300-32 fm; Basler AG, Ahrensburg, Germany).
First, the number of “hedgehogs” was counted among 150 comets per eye (450 comets per group). According to the Atlas of Comet Assay Images, hedgehogs are highly fragmented cells presenting as a small or non-existent comet head and large diffuse comet tail. Second, 150 scorable comets (i.e., with a clearly defined head and tail with no interference from neighboring cells) without hedgehogs were measured per eye (450 comets per group).

HCE-T cells [3] = assay: Cytotoxicity assay (Cell Counting Kit-8) after 1 min exposure; type: cell-based, human
Procedure: as §1, §2

[4] = system: anterior segment of the eye; assay: Ophthalmological examination of anterior ocular segment (slit-lamp, fluorescein staining); type: in vivo, rabbit
Procedure: (§3) Twenty-four hours after administration, the anterior segment of the eye was observed using a slit-lamp biomicroscope SL-130 (Carl Zeiss Meditec AG, Jena, Germany). The corneal epithelial damage was evaluated by staining with fluorescein (AYUMI Pharmaceutical Corporation, Tokyo, Japan). After anterior ocular observation, the rabbits were euthanized in the same manner as the comet assay, and the eyeballs of the rabbits were collected.

HCE-T cells [5] = assay: In vitro comet assay after 1 min exposure; type: cell-based, human
Procedure: To assess time-course changes in DNA damage after short-time exposure to the genotoxic compounds, the in vitro comet assay was performed using HCE-T cells with reference to our previous study. Briefly, the HCE-T cells were seeded in a 12-well culture plate at a density of 5 × 10^4 cells/well (1 mL/well) and incubated for approximately 24 h. After a 24-h incubation, the cells were washed with PBS. […] After the treatment, the cells were washed with PBS, and 1 mL of fresh culture medium was added. The cells were further incubated for 2, 4, 6, and 24 h at 37 °C. After incubation, the cells were trypsinized (TrypLE™ Express, Thermo Fisher Scientific K.K.). In the same manner, the cells were exposed to the test compounds or distilled water as a negative control for 1 min to evaluate DNA damage immediately after exposure. Immediately after the treatment, the cells were washed and trypsinized. The collected cells were centrifuged and re-suspended in PBS at a density of 1–2 × 10^5 cells/mL. Comet assay was performed as described previously herein (n = 3/group).
as §2

rabbit cornea = assay: Histopathological examination of cornea; conditions: in vivo
Procedure: as §3
The collected eyes (one eye per group) were fixed with 1% formaldehyde/2.5% glutaraldehyde in 0.1 M phosphate buffer fixative overnight at 4 °C and post-fixed with 10% neutral-buffered formalin solution. The tissues were dehydrated using a graded alcohol series and embedded in paraffin. Approximately 3-μm-thick corneal tissue sections were prepared and stained with hematoxylin and eosin. All microscopic images were obtained with a BX53 microscope fitted with a DP74 digital camera (Olympus Corporation) and analyzed using the cellSens Standard imaging software, version 2.3 (Olympus Corporation).

[6] = after single ocular instillation (1% EtBr, 3% MMS, 1% 4-NQO), sampling at 0.5, 2, 4, 6, 24 h

O=[N+]([O-])c1cc[n+]([O-])c2ccccc12 [4-NQO, 4-nitroquinoline 1-oxide]
viability at 2 h ([1]; read-out: Cell viability): 139 ± 2%
viability at 4 h ([1]; read-out: Cell viability): 114 ± 14.5%
viability at 6 h ([1]; read-out: Cell viability): 123 ± 24.2%
viability at 24 h ([1]; read-out: Cell viability): 118 ± 13.9%
Time of the peak value of the % tail DNA [2, 6]: 0.5 h

CC[n+]1c(-c2ccccc2)c2cc(N)ccc2c2ccc(N)cc21 [EtBr, ethidium bromide]
viability at 2 h ([1]; read-out: Cell viability): 89.3 ± 6.1%
viability at 4 h ([1]; read-out: Cell viability): 74.7 ± 8%
viability at 6 h ([1]; read-out: Cell viability): 73.1 ± 4.6%
viability at 24 h ([1]; read-out: Cell viability): 39.1 ± 1.3%
Cytotoxicity (in words) (HCE-T cells [3]; 24 h after removing the compound, 1 min exposure, 0.5% EtBr): Moderate cytotoxicity
Cytotoxicity (in words) (HCE-T cells [3]; other times (2, 4, 6 h) after removing the compound, 1 min exposure, 0.5% EtBr): slight cytotoxicity
% tail DNA, median ([2]; 0.5 h after single ocular instillation (1% EtBr, 3% MMS, 1% 4-NQO)): 25.8%
Frequency of hedgehog ([2]; 0.5 h after single ocular instillation (1% EtBr, 3% MMS, 1% 4-NQO), mean ± SD, n = 3): 3.6 ± 2.5%
% tail DNA, mean ± SD ([2]; 0.5 h after single ocular instillation of 50 μL (1% EtBr, 3% MMS, 1% 4-NQO), n = 3 eyes): 31.0 ± 3.0%
% tail DNA, median ([2]; 2 h after single ocular instillation (1% EtBr, 3% MMS, 1% 4-NQO)): 22.6%
Frequency of hedgehog ([2]; 2 h after single ocular instillation (1% EtBr, 3% MMS, 1% 4-NQO), mean ± SD, n = 3): 3.3 ± 1.7%
% tail DNA, mean ± SD ([2]; 2 h after single ocular instillation of 50 μL (1% EtBr, 3% MMS, 1% 4-NQO), n = 3 eyes): 28.1 ± 1.6%
% tail DNA, median ([2]; 4 h after single ocular instillation (1% EtBr, 3% MMS, 1% 4-NQO)): 61.5%
Frequency of hedgehog ([2]; 4 h after single ocular instillation (1% EtBr, 3% MMS, 1% 4-NQO), mean ± SD, n = 3): 8.9 ± 3.5^a %
% tail DNA, mean ± SD ([2]; 4 h after single ocular instillation of 50 μL (1% EtBr, 3% MMS, 1% 4-NQO), n = 3 eyes): 55.3 ± 1.4%
% tail DNA, median ([2]; 6 h after single ocular instillation (1% EtBr, 3% MMS, 1% 4-NQO)): 40.4%
Frequency of hedgehog ([2]; 6 h after single ocular instillation (1% EtBr, 3% MMS, 1% 4-NQO), mean ± SD, n = 3): 1.6 ± 2.3%
% tail DNA, mean ± SD ([2]; 6 h after single ocular instillation of 50 μL (1% EtBr, 3% MMS, 1% 4-NQO), n = 3 eyes): 41.0 ± 6.5%
% tail DNA, median ([2]; 24 h after single ocular instillation (1% EtBr, 3% MMS, 1% 4-NQO)): 5.4%
Frequency of hedgehog ([2]; 24 h after single ocular instillation (1% EtBr, 3% MMS, 1% 4-NQO), mean ± SD, n = 3): 0.4 ± 0.6%
% tail DNA, mean ± SD ([2]; 24 h after single ocular instillation of 50 μL (1% EtBr, 3% MMS, 1% 4-NQO), n = 3 eyes): 10.0 ± 4.0%
Time of the peak value of the % tail DNA [2, 6]: 4 h
Ophthalmological changes of the anterior ocular segment ([4]; 24 h after single ocular instillation (1% EtBr, 3% MMS)): No abnormal ophthalmological changes
Change of % tail DNA after removing the compound (HCE-T cells [5]; 1 min exposure (0.5% EtBr, 0.5% MMS, 0.001% 4-NQO), then 2, 4, 6, 24 h in fresh medium): gradually increased

COS(C)(=O)=O [MMS, methyl methanesulfonate]
viability at 2 h [1]: 115 ± 5.1%
viability at 4 h [1]: 108.1 ± 0.3%
viability at 6 h [1]: 108 ± 4.9%
viability at 24 h [1]: 108 ± 11.3%
Cytotoxicity (in words) (HCE-T cells [3]): no cytotoxicity
Time of the peak value of the % tail DNA ([2]; rabbit, in vivo): 0.5 h
% tail DNA, mean ± SD ([2]; rabbit, in vivo, 0.5 h): 66.2 ± 1.8%
% tail DNA, median ([2]; rabbit, in vivo, 0.5 h): 70.8%
Frequency of hedgehog ([2]; rabbit, in vivo, 0.5 h): 12.9 ± 7.8^a %
% tail DNA, mean ± SD ([2]; rabbit, in vivo, 2 h): 63.6 ± 4.4%
% tail DNA, median ([2]; rabbit, in vivo, 2 h): 69.4%
Frequency of hedgehog ([2]; rabbit, in vivo, 2 h): 13.6 ± 8.3^a %
% tail DNA, mean ± SD ([2]; rabbit, in vivo, 4 h): 47.1 ± 7.2%
% tail DNA, median ([2]; rabbit, in vivo, 4 h): 48.9%
Frequency of hedgehog ([2]; rabbit, in vivo, 4 h): 10.7 ± 1.0^a %
% tail DNA, mean ± SD ([2]; rabbit, in vivo, 6 h): 50.1 ± 2.8%
% tail DNA, median ([2]; rabbit, in vivo, 6 h): 56.0%
Frequency of hedgehog ([2]; rabbit, in vivo, 6 h): 8.0 ± 2.0^a %
% tail DNA, mean ± SD ([2]; rabbit, in vivo, 24 h): 40.1 ± 2.4%
% tail DNA, median ([2]; rabbit, in vivo, 24 h): 38.1%
Frequency of hedgehog ([2]; rabbit, in vivo, 24 h): 2.0 ± 1.0^a %
Ophthalmological changes of the anterior ocular segment ([4]; rabbit, in vivo): No abnormal ophthalmological changes
Infiltrate, inflammatory cell, corneal limbus (rabbit cornea): ±
Change of % tail DNA after removing the compound (HCE-T cells [5]): decreased
